Measurements taken from US20150359795A1, “HIGH DRUG LOAD PHARMACEUTICAL COMPOSITIONS WITH CONTROLLABLE RELEASE RATE AND PRODUCTION METHODS THEREOF” (Pharmosa Limited, priority 2014, published 2015).
Counter-ions that a name gives are not always drawn.

Key:
[1] = Viscosity of saturated or unsaturated aqueous solutions of APIs, rotational viscometer (Brooksfield); format: physicochemical
Procedure: The viscosities of saturated aqueous solutions or aqueous solutions with different weight percentage are measured with Rotational viscometers (Brooksfield, USA) at constant temperature 25° C., and the rotation speed is 5-100 rpm.
(§1) The viscosities of saturated aqueous solutions or aqueous solutions with different weight percentage of the compounds are measured with Rotational viscometers (Brooksfield, USA) at 25° C.

[2] = Tablet-forming ability of APIs (self-granulation with water, hardness and friability of tablets); format: physicochemical; details: tablets of 99% API and 1% magnesium stearate, about 100 mg; for The tablet-forming ability Hardness of tablets (kp): wet granulated with purified water
Procedure: as §1
Each API listed in Table 1-1 is separately weighed […] and wet granulated in a high shear mixer using purified water. The wet granules are dried in an oven and sieved with 20 mesh screen. Each of the dried granules is separately transferred into a V-blender, and mixed with 5 g of magnesium stearate. The obtained mixture is compressed into tablets. Every tablet weighs about 100 mg, and contains magnesium stearate and an individual API.

[3] = prior art formulation with lactose, microcrystalline cellulose, crospovidone, magnesium stearate; cited from earlier work

SMILES	Saturated aqueous solution at 25° C. Viscosity (cP) [1] [cP]	The tablet-forming ability Friability of tablets (%) [2] [%]	The tablet-forming ability Hardness of tablets (kp) [2]	Unsaturated aqueous solution at 25° C. Viscosity (cP) ([1]; weight percent 10%)	Unsaturated aqueous solution at 25° C. Viscosity (cP) ([1]; weight percent 30%)	Unsaturated aqueous solution at 25° C. Viscosity (cP) ([1]; weight percent 25%)	drug dissolved in 5 minutes in vitro [3]
CN(C)C(=N)N=C(N)N [Metformin HCl]	~2						
NS(=O)(=O)c1cc2c(cc1Cl)NCNS2(=O)=O [Hydrochlorothiazide]	~1						
Cc1ccc(NC(=O)c2ccc(CN3CCN(C)CC3)cc2)cc1Nc1nccc(-c2cccnc2)n1 [Imatinib mesylate]	~1100	<0.1	3-8 kp			~15	

Now from value to compound, other results behind:

Saturated aqueous solution at 25° C. Viscosity (cP) [1] [cP]	The tablet-forming ability Friability of tablets (%) [2] [%]	The tablet-forming ability Hardness of tablets (kp) [2]	Unsaturated aqueous solution at 25° C. Viscosity (cP) ([1]; weight percent 10%)	Unsaturated aqueous solution at 25° C. Viscosity (cP) ([1]; weight percent 30%)	Unsaturated aqueous solution at 25° C. Viscosity (cP) ([1]; weight percent 25%)	SMILES	drug dissolved in 5 minutes in vitro [3]
~2						CCN1CCCC1CNC(=O)c1cc(S(N)(=O)=O)ccc1OC (stereo not shown) [Sulpiride]	
~540	<0.1	3-8 kp	~12			CCCCCCCCOc1ccccc1C(=O)Nc1ccc(C(=O)OCC[N+](C)(CC)CC)cc1 [Otilonium bromide]	more than 90%
~170	<0.1	3-8 kp		~10		COc1cc2nc(N(C)CCCNC(=O)C3CCCO3)nc(N)c2cc1OC (stereo not shown) [Alfuzosin HCl]	
